Experimental data reported in patent US20100285959A1, “HERBICIDAL MIXTURES” (priority 2006, published 2010).

What was measured:
redroot pigweed (AMARE) = assay: Test 21 growth chamber, postemergence; format: in vivo, Amaranthus retroflexus; conditions: 19 DAA
Method: (§1) A test was conducted to evaluate the effects on winter barley (HORVW, Hordeum vulgare L.), winter wheat (TRZAW, Triticum aestivum L.), and several weed species, of mixtures of Compound 2 with the commercial herbicide (2,4-dichlorophenoxy)acetic acid (2,4-D), an auxin mimic. […] Plants were treated postemergence at the 2-4 leaf growth stage, and each treatment was replicated one time. […] Plants were watered as needed. […] Results are from single replicates.

wild buckwheat (POLCO) = assay: Test 22 growth chamber, postemergence; format: in vivo, Polygonum convolvulus; conditions: 25 DAA
Method: as §1, with “species” for “species,”, “herbicides” for “herbicide”, “(2,4-D) and (4-chloro-2-methylphenoxy)acetic acid (MCPA),” for “(2,4-D), an”, “mimics.” for “mimic.”, “stage, except KCHSC, SASKR” for “stage,”, “STEME which were in the 4-8 leaf growth stage. Each” for “each”

wild mustard (SINAR) = assay: Test 23 growth chamber, postemergence; format: in vivo, Sinapis arvensis; conditions: 21 DAA
Method: as §1, with “species” for “species,”, “herbicides” for “herbicide”, “(2,4-D) and (4-chloro-2-methylphenoxy)acetic acid (MCPA),” for “(2,4-D), an”, “mimics.” for “mimic.”, “three times.” for “one time.”, “means of the three” for “from single”

Russian thistle (SASKR) = assay: Test 21 growth chamber, postemergence; format: in vivo, Salsola kali; conditions: 19 DAA
Method: as §1

[1] = system: broadleaf buttonweed (BOILF); assay: Test 12 field trial, preemergence; format: in vivo, Borreria latifolia; parameters: scale not given here; conditions: Cpd 2 or Cpd 1 62 g a.i./ha, Diuron 2000 g a.i./ha
Text: (§2) In early-mid spring season, corn seeds (hybrid ‘Pioneer 3041’) were planted 5 cm deep and sugarcane nodes (variety RB-72.454) were planted 10 cm deep in separate plots in a clay soil having 2.6% organic matter and a pH of 5.6. Plots were 24 m long by 1.5 m wide with rows spaced 80 cm (corn) or 140 cm (sugarcane) apart. Corn seeds were spaced 15 cm apart and sugarcane nodes were spaced 10 cm apart within the rows. At the same time, weed seeds were broadcast over the surface of separate plots without a crop, one weed species per plot. The weed plots were rotary tilled to incorporate the weed seeds to a variety of depths. The field was managed using conventional tillage practices.

slender amaranth (AMAVI) = assay: Test 12 field trial, preemergence; format: in vivo, Amaranthus viridis; parameters: scale not given here; conditions: Cpd 2 or Cpd 1 62 g a.i./ha, Diuron 2000 g a.i./ha
Text: as §2

common sugarcane (SACOF) = assay: Test 12 field trial, preemergence; format: in vivo, Saccharum officinarum; parameters: scale not given here; conditions: Cpd 2 or Cpd 1 62 g a.i./ha, Diuron 2000 g a.i./ha
Text: as §2

sicklepod (CASOB) = assay: Test 12 field trial, preemergence; format: in vivo, Cassia obtusifolia; parameters: scale not given here; conditions: Cpd 2 or Cpd 1 62 g a.i./ha, Diuron 2000 g a.i./ha
Text: as §2

jimsonweed (DATST) = assay: Test 7 field trial, preemergence; format: in vivo, Datura stramonium
Method: (§3) Plots were 7.6 m long by 3.0 m wide with rows spaced 76 cm apart. Seeds were spaced 15 cm apart within the rows. The field was managed using conventional tillage practices. […] Wild radish was evaluated 14 and 28 days after application. […] Results are the means of the three replicates.

curly dock (RUMCR) = assay: Test 3 field trial, emerged weeds before corn planting; format: in vivo, Rumex crispus; conditions: Cpd 2 100, glyphosate 1540, paraquat 1150 g a.i./ha, alone or combined
Text: Corn seeds (hybrid ‘Pioneer 33J56’) were planted in early spring season, 3.8 cm deep in a silt loam soil having 2.4% organic matter and a pH of 6. Plots were 6.1 m long by 2.7 m wide with rows spaced 91.4 cm apart. The field was managed using no-till practices. […] Compound 2 and paraquat treatments, alone and in combination, also included a surfactant. Glyphosate, alone and with Compound 2, included ammonium sulfate in the treatment mixture. […] The effects on the weeds in the treated plots and untreated control plots were recorded 30, 42, 46 and 68 days after application. Most of the weed species could not be evaluated at every timing. Corn response was not evaluated because the growth was highly variable depending on the efficacy of the weed control treatments. […] Results are the means of the three replicates.

bushy wallflower (ERYRE) = assay: Test 9 field trial, emerged weeds before corn planting; format: in vivo, Erysimum repandum; conditions: g a.i./ha: Cpd 2 100, Glyphosate 1540, Paraquat 1150
Method: Corn seeds (hybrid ‘Pioneer 34M91 RR’) were planted in mid spring season, about 3.8 cm deep in a silty clay loam soil having a pH of 6.7. Plots were 9.1 m long by 3.0 m. The field was managed using no-till practices. […] Compound 2 and paraquat treatments, alone and in combination, also included a surfactant. Glyphosate, alone and with Compound 2, included ammonium sulfate in the treatment mixture. […] The effects on the weeds in the treated plots and untreated control plots were recorded 7, 14, 23, 30 and 57 days after application. Most of the weed species could not be evaluated at every timing. Corn response was only evaluated 57 days after application. […] Results are the means of the three replicates.

[2] = system: Pennsylvania smartweed (POLPY); assay: Test 7 field trial, preemergence; format: in vivo, Polygonum pensylvanicum
Method: as §3

[3] = 2,4-D or MCPA alone 250 g a.i./ha

Structure (SMILES): O=C(O)COc1ccc(Cl)cc1Cl [2,4-D, (2,4-dichlorophenoxy)acetic acid]
- Postemergence AMARE Obs (redroot pigweed (AMARE); 2,4-D alone 125 g a.i./ha): 50
- Postemergence AMARE Obs (redroot pigweed (AMARE); 2,4-D alone 250 g a.i./ha): 50
- Postemergence POLCO Obs (wild buckwheat (POLCO); [3]): 45
- Postemergence SINAR Obs (wild mustard (SINAR); [3]): 65
- Postemergence SASKR Obs (Russian thistle (SASKR); 2,4-D alone 125 g a.i./ha): 60
- Postemergence SASKR Obs (Russian thistle (SASKR); 2,4-D alone 250 g a.i./ha): 55

Structure (SMILES): Nc1nc(C2CC2)nc(C(=O)O)c1Cl [Compound 1, 6-amino-5-chloro-2-cyclopropyl-4-pyrimidinecarboxylic acid]
- BOILF Obs ([1]; 15 DAA): 70
- BOILF Obs ([1]; 29 DAA): 60
- BOILF Obs ([1]; 48 DAA): 95
- BOILF Obs ([1]; 61 DAA): 95
- AMAVI Obs (slender amaranth (AMAVI); 15 DAA): 90
- AMAVI Obs (slender amaranth (AMAVI); 29 DAA): 60
- AMAVI Obs (slender amaranth (AMAVI); 48 DAA): 40
- AMAVI Obs (slender amaranth (AMAVI); 61 DAA): 40
- SACOF Obs (common sugarcane (SACOF); 15 DAA): 0
- SACOF Obs (common sugarcane (SACOF); 29 DAA): 0
- SACOF Obs (common sugarcane (SACOF); 48 DAA): 0
- SACOF Obs (common sugarcane (SACOF); 61 DAA): 5
- CASOB Obs (sicklepod (CASOB); 15 DAA): 60
- CASOB Obs (sicklepod (CASOB); 29 DAA): 70
- CASOB Obs (sicklepod (CASOB); 48 DAA): 90
- CASOB Obs (sicklepod (CASOB); 61 DAA): 90

Structure (SMILES): COC(=O)c1nc(C2CC2)nc(N)c1Cl [Compound 2, methyl 6-amino-5-chloro-2-cyclopropyl-4-pyrimidinecarboxylate]
- DATST Obs (jimsonweed (DATST); 14 DAA, 125 g a.i./ha): 98%
- DATST Obs (jimsonweed (DATST); 14 DAA, 250 g a.i./ha): 98%
- DATST Obs (jimsonweed (DATST); 14 DAA, 500 g a.i./ha): 100%
- DATST Obs (jimsonweed (DATST); 28 DAA, 125 g a.i./ha): 98%
- DATST Obs (jimsonweed (DATST); 28 DAA, 250 g a.i./ha): 98%
- DATST Obs (jimsonweed (DATST); 28 DAA, 500 g a.i./ha): 100%
- DATST Obs (jimsonweed (DATST); 62 DAA, 125 g a.i./ha): 100%
- DATST Obs (jimsonweed (DATST); 62 DAA, 500 g a.i./ha): 100%
- BOILF Obs ([1]; 15 DAA): 70
- BOILF Obs ([1]; 29 DAA): 60
- BOILF Obs ([1]; 48 DAA): 95
- BOILF Obs ([1]; 61 DAA): 100
- AMAVI Obs (slender amaranth (AMAVI); 15 DAA): 90
- AMAVI Obs (slender amaranth (AMAVI); 29 DAA): 60
- AMAVI Obs (slender amaranth (AMAVI); 48 DAA): 40
- AMAVI Obs (slender amaranth (AMAVI); 61 DAA): 0
- Postemergence AMARE Obs (redroot pigweed (AMARE); Cpd 2 alone 16 g a.i./ha): 60
- RUMCR Obs (curly dock (RUMCR); 30 DAA): 62%
- RUMCR Obs (curly dock (RUMCR); 42 DAA): 37%
- RUMCR Obs (curly dock (RUMCR); 46 DAA): 54%
- RUMCR Obs (curly dock (RUMCR); 68 DAA): 67%
- ERYRE Obs (bushy wallflower (ERYRE); 7 DAA): 20%
- ERYRE Obs (bushy wallflower (ERYRE); 14 DAA): 3%
- ERYRE Obs (bushy wallflower (ERYRE); 23 DAA): 3%
- ERYRE Obs (bushy wallflower (ERYRE); 30 DAA): 0%
- ERYRE Obs (bushy wallflower (ERYRE); 57 DAA): 0%
- SACOF Obs (common sugarcane (SACOF); 15 DAA): 0
- SACOF Obs (common sugarcane (SACOF); 29 DAA): 0
- SACOF Obs (common sugarcane (SACOF); 48 DAA): 0
- SACOF Obs (common sugarcane (SACOF); 61 DAA): 5
- CASOB Obs (sicklepod (CASOB); 15 DAA): 60
- CASOB Obs (sicklepod (CASOB); 29 DAA): 80
- CASOB Obs (sicklepod (CASOB); 48 DAA): 60
- CASOB Obs (sicklepod (CASOB); 61 DAA): 50
- POLPY Obs ([2]; 14 DAA, 125 g a.i./ha): 77%
- POLPY Obs ([2]; 14 DAA, 250 g a.i./ha): 95%
- POLPY Obs ([2]; 14 DAA, 500 g a.i./ha): 97%
- POLPY Obs ([2]; 28 DAA, 125 g a.i./ha): 70%
- POLPY Obs ([2]; 28 DAA, 250 g a.i./ha): 93%
- POLPY Obs ([2]; 28 DAA, 500 g a.i./ha): 97%
- POLPY Obs ([2]; 62 DAA, 125 g a.i./ha): 40%
- POLPY Obs ([2]; 62 DAA, 500 g a.i./ha): 100%
- Postemergence POLCO Obs (wild buckwheat (POLCO); Cpd 2 alone 4 g a.i./ha): 55
- Postemergence POLCO Obs (wild buckwheat (POLCO); Cpd 2 alone 8 g a.i./ha): 60
- Postemergence POLCO Obs (wild buckwheat (POLCO); Cpd 2 alone 16 g a.i./ha): 60
- Postemergence SINAR Obs (wild mustard (SINAR); Cpd 2 alone 4 g a.i./ha): 43
- Postemergence SINAR Obs (wild mustard (SINAR); Cpd 2 alone 8 g a.i./ha): 53
- Postemergence SINAR Obs (wild mustard (SINAR); Cpd 2 alone 16 g a.i./ha): 55
- Postemergence SASKR Obs (Russian thistle (SASKR); Cpd 2 alone 16 g a.i./ha): 65

Structure (SMILES): O=C(O)CNCP(=O)(O)O [Glyphosate]
- RUMCR Obs (curly dock (RUMCR); 30 DAA): 75%
- RUMCR Obs (curly dock (RUMCR); 42 DAA): 61%
- RUMCR Obs (curly dock (RUMCR); 46 DAA): 82%
- RUMCR Obs (curly dock (RUMCR); 68 DAA): 93%
- ERYRE Obs (bushy wallflower (ERYRE); 7 DAA): 63%
- ERYRE Obs (bushy wallflower (ERYRE); 14 DAA): 74%
- ERYRE Obs (bushy wallflower (ERYRE); 23 DAA): 89%
- ERYRE Obs (bushy wallflower (ERYRE); 30 DAA): 100%
- ERYRE Obs (bushy wallflower (ERYRE); 57 DAA): 100%

Structure (SMILES): CCc1cccc(C)c1N(C(=O)CCl)[C@@H](C)COC [S-Metolachlor, S-metolachlor, reference compound]
- DATST Obs (jimsonweed (DATST); 14 DAA, 1000 g a.i./ha): 65%
- DATST Obs (jimsonweed (DATST); 28 DAA, 1000 g a.i./ha): 57%
- DATST Obs (jimsonweed (DATST); 62 DAA, 1000 g a.i./ha): 0%
- POLPY Obs ([2]; 14 DAA, 1000 g a.i./ha): 60%
- POLPY Obs ([2]; 28 DAA, 1000 g a.i./ha): 45%
- POLPY Obs ([2]; 62 DAA, 1000 g a.i./ha): 10%
